Results on 7 compounds are retold here after patent publication US9018391B2, “Inhibitors of beta-secretase” (Boehringer Ingelheim International GmbH, priority 2012, dated 2015).

In data set [1] the target is truncated human beta-secretase, BACE1 (amino acids 1-454) (Homo sapiens (Human), UniProt P56817). Description: BACE1 Assay (Assay 1), fluorescence quench assay. To be noted: pH 4.4. In kind it is biochemical. The procedure: The substrate was dissolved at 1 mg/ml in DMSO.
The assay was performed in the presence of OptiMEM™ (supernatant collected over 24 h and cleared from cellular debris by centrifugation) containing the ectodomain of BACE1, 25 μl water containing the desired 2-fold concentration of test compound and 2% DMSO, 1 μM substrate peptide, 20 mM NaOAc, pH 4.4, and 0.04% Triton-X100 in a total assay volume of 50 μl in a 384 well plate. In general, 25 μl of compound dilution were added to the plate followed by the addition of 10 μl of BACE1 containing OptiMEM™ diluted 1:10 in water with 0.2% Triton X-100. The reaction was started with the addition of 15 μl substrate in NaOAc buffer. The reaction was incubated at rt (dark) in an Envision® multilabel reader (Perkin Elmer) and the cleavage of the substrate was recorded as kinetic for […] at ex: 485 nm, em: 538 nm. Blank wells containing no enzyme were included on each plate.
The intensity of fluorescence was regressed against time in order to derive velocities of reaction in all 384 wells. These velocities were used for calculating percent control using an uninhibited control containing 1% DMSO as 100% and a blank control performed in the absence of enzyme as 0%. IC50 values were calculated by fitting percent control vs. test compound concentration using Assay Explorer®.

Another data set relates to Human Hepatocytes. The data set is described as follows: In Vitro Hepatocyte Stability Assay (Assay 4). To be noted: predicted blood clearance as percent of hepatic blood flow. In kind it is in vitro ADME. The procedure:
In Vitro Hepatocyte Stability Assay (Assay 4)
The metabolic degradation of test compounds was assayed in a hepatocyte suspension. Cryopreserved hepatocytes were incubated in an appropriate buffer system (e.g., Dulbecco's modified eagle medium plus 3.5 μg glucagon/500 mL, 2.5 mg insulin/500 mL and 3.75 mg/500 mL hydrocortison) containing 5% species serum. Following a 30 min preincubation in an incubator (37° C., 10% CO2), 5 μl of test compound solution (80 μM; from 2 mM in DMSO stock solution diluted 1:25 with medium) were added into 395 μl hepatocyte suspension (cell density in the range 0.25−5×10^6 cells/mL, typically 1×10^6 cells/mL; final concentration of test compound final DMSO concentration […]).
The cells were incubated for six h (incubator, orbital shaker) and samples (25 μl) were taken at 0, 0.5, 1, 2, 4 and 6 h. Samples were transferred into acetonitrile and pelleted by centrifugation (5 min). The supernatant was transferred to a new 96 DeepWell™ plate, evaporated under nitrogen and resuspended. Decline of compound was analyzed by HPLC-MS/MS. CLint (in vitro hepatic intrinsic clearance) was calculated as follows: CLint=Dose/AUC=(C0/CD)/(AUD+Clast/k)×1000/60
C0: initial concentration in the incubation [μM];
CD: cell density of vital cells [cells/mL];
AUD: area under the data [μM×h];
Clast: concentration of last data point [μM];
k: slope of the regression line for compound decline [h^−1].
The calculated in vitro hepatic intrinsic clearance was scaled up to the intrinsic in vivo hepatic clearance (Clint in vivo) and used to predict hepatic in vivo blood clearance (CL) by the use of a liver model (well-stirred model), as follows: CLint,in vivo[mL/min/kg]=(CLint[μL/min/10^6 cells]×hepatocellularity[10^6 cells/g liver]×liver factor [g/kg body weight])/1000 CL[mL/min/kg]=CLint,to vivo×hepatic blood flow[ml/min/kg]/(CLint,in vivo[ml/min/kg]+hepatic blood flow[mL/min/kg])
The in vivo blood clearance was transformed into percent of the hepatic blood flow (% Qh): % Qh=CL[mL/min/kg]/hepatic blood flow[mL/min/kg])×100
Hepatocellularity, human: 1.2×10^7 cells/g liver;
Liver factor, human: 25.7 g/kg body weight;
Hepatic blood flow, human: 21 mL/(min×kg).

Data set [2] is described as follows: In Vitro Phospholipidosis Assay (Assay 3), Nile red staining. Conditions: human, first effect concentration, U937 cells, read-out: Phospholipidosis FEC IC50 μM (assay 3). In kind it is cell-based, human. The protocol:
(§1) In Vitro Phospholipidosis Assay (Assay 3)
(§2) The phospholipidogenic potential of test compounds was assayed using the human hematopoetic U937 cell line. The test principle was to analyze the phospholipid content by staining the cells with the fluorescent dye Nile red.
(§3) U937 cells were seeded into cell culture plates at 0.5×10^6 cells/mL in RPMI medium containing 10% FBS, 1% DMSO, and 0.005% gentamicin. The cells were cultivated with or without different concentrations of test compound for 48 h under standard culture conditions.
(§4) For harvesting, the cells were centrifuged at 130×g for 4 min and washed once with PBS. Then, 2×0.5 mL cell suspensions were prepared for non-fixed cell measurement (0.5 mL for propidium iodide (PI) viability measurement and 0.5 mL for Nile red measurement).
(§5) The remaining cells were fixed with 3.7% formaldehyde for 30 min. After a further centrifugation step, cells were resuspended with 1.3 mL Nile red working solution (1 μg/mL) and incubated for 5 min at rt. The cell suspension was washed twice with 3 mL PBS and centrifuged with 130×g for 4 min. The supernatant was discarded and the cells were resuspended with 0.5 mL PBS and kept for flow cytometry measurement.
(§6) For Nile red staining of the 0.5 mL non-fixed cell samples, 50 μL of a ready to use Nile red solution (10 μg/mL) were added per sample. Samples were kept on ice for 5 min. Thereafter, they were washed once with 4 mL PBS (4° C., 250×g for 8 min) and finally resuspended in 400 μL PBS and kept for flow cytometry measurement.
(§7) For the viability measurement, 12.5 μL of the ready to use PI solution (10 μg/mL) were added to the 0.5 mL non-fixed cell suspension. After 15 min of incubation on ice, the samples were measured by flow cytometry using a Coulter Epics XL/MCL flow cytometer.
(§8) The viability of the cells of each sample was determined by flow cytometry measurement of the PI content at channel 2 (568-590 nm). Cut-off gates for the fluorescence-dependent differentiation between live and dead cells were defined based on the analysis of cell culture medium control samples.
(§9) Only samples with a cell viability of >=90% relative to control samples were analyzed for phospholipidosis. Each Nile red sample (non-fixed and fixed samples) was measured by flow cytometry at channel 1 (504-541 nm) and channel 4 (660-680 nm).
(§10) For each channel, relative Nile red fluorescence intensity of a test sample was calculated compared to control samples and expressed as a percentage of control fluorescence intensity. The assessment of the phospholipidogenic potential and the first effective concentration (FEC) of a test compound was done manually based on the fluorescence intensities at both wavelengths for the fixed cells, as well as for the non-fixed cells.

Another data set deals with hERG channel (Homo sapiens (Human), UniProt Q12809). The data set is described as follows: hERG-Channel Assay (Assay 2), whole-cell patch clamp in HEK293 cells stably transfected with hERG cDNA. It is filed as cell-based. To be noted: for inhibition at 10 µM: human, HEK293 cells stably transfected with hERG cDNA, pH 7.4, 35° C.; for % Inhibition hERG @ 10 μM (assay 2): 35° C. From the text:
hERG-Channel Assay (Assay 2)
Cells: HEK (human embryonic kidney) 293 cells were stably transfected with hERG cDNA.
Cells were superfused with a bath solution containing (mM): NaCl (137), KCl (4.0), MgCl2 (1.0), CaCl2 (1.8), Glucose (10), HEPES (10), pH 7.4 with NaOH. Patch pipettes were made from borosilicate glass tubing using a horizontal puller and filled with pipette solution containing (mM): K-aspartate (130), MgCl2 (5.0), EGTA (5.0), K2ATP (4.0), HEPES (10.0), pH 7.2 with KOH. Resistance of the microelectrodes was in the range between 2 and 5 MΩ.
Stimulation and Recording:
Membrane currents were recorded using an EPC-10 patch clamp amplifier and PatchMaster software. hERG-mediated membrane currents were recorded at 35° C., using the whole-cell configuration of the patch-clamp technique. Transfected HEK293 cells were clamped at a holding potential of −60 mV and hERG-mediated inactivating tail currents were elicited using a pulse pattern with fixed amplitudes (activation/inactivation: 40 mV for 2000 ms; recovery: −120 mV for 2 ms; ramp to 40 mV in 2 ms; inactivating tail current: 40 mV for 50 ms) repeated at 15 s intervals. During each inter-pulse interval, 4 pulses scaled down by a factor of 0.2 were recorded for a P/n leak subtraction procedure. Rs compensation was employed up to a level that safely allowed recording devoid of ringing.
Compound Preparation and Application:
The different concentrations of the test compounds were applied sequentially on each of the different cells investigated. A steady state level of baseline current was measured for at least 6 sweeps prior to the application of the first test compound concentration.
The test compound was dissolved in DMSO to yield a master stock solution which was diluted further in DMSO to stock solutions needed for the lower concentrations. Final dilutions in extracellular buffer were prepared freshly from these stocks by a 1:1000 dilution step each before starting the experiments.
Peak current amplitudes were measured 3 ms after the ramp to +40 mV. For baseline and each concentration, the peak currents of the three last sweeps before application of the next concentration were averaged. Residual currents (I/I0) were calculated for each cell as the fraction of actual average peak current and average baseline peak current.
(In general: hERG is a cardiac potassium channel; its block is linked to QT prolongation.)

Data set [3] relates to human hematopoetic U937 cell line. The data set is described as follows: In Vitro Phospholipidosis Assay (Assay 3), Nile red staining. It is filed as cell-based. Conditions: first effect concentration; U937 cells, 48 h; read-out: Phospholipidosis FEC IC50 μM (assay 3). The protocol:
as §1, §2, §3, §4, §5, §6, §7, §8, §9, §10

Molecules are shown by their SMILES.

Chain of truncated human beta-secretase, BACE1 (amino acids 1-454) (P56817 22-454): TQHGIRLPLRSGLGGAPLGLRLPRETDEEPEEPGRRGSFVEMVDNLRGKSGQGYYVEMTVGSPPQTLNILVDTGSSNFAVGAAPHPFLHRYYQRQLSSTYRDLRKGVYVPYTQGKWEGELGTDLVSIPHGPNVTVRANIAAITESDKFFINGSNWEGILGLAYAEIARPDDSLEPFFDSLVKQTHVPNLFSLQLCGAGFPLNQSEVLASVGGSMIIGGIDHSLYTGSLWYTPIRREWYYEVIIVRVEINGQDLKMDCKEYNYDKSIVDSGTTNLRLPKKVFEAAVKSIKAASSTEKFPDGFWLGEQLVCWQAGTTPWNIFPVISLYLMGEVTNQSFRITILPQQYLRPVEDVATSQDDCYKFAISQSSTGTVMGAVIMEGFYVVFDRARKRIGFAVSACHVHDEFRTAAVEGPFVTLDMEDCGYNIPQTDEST
Chain of hERG channel (Q12809 whole entry): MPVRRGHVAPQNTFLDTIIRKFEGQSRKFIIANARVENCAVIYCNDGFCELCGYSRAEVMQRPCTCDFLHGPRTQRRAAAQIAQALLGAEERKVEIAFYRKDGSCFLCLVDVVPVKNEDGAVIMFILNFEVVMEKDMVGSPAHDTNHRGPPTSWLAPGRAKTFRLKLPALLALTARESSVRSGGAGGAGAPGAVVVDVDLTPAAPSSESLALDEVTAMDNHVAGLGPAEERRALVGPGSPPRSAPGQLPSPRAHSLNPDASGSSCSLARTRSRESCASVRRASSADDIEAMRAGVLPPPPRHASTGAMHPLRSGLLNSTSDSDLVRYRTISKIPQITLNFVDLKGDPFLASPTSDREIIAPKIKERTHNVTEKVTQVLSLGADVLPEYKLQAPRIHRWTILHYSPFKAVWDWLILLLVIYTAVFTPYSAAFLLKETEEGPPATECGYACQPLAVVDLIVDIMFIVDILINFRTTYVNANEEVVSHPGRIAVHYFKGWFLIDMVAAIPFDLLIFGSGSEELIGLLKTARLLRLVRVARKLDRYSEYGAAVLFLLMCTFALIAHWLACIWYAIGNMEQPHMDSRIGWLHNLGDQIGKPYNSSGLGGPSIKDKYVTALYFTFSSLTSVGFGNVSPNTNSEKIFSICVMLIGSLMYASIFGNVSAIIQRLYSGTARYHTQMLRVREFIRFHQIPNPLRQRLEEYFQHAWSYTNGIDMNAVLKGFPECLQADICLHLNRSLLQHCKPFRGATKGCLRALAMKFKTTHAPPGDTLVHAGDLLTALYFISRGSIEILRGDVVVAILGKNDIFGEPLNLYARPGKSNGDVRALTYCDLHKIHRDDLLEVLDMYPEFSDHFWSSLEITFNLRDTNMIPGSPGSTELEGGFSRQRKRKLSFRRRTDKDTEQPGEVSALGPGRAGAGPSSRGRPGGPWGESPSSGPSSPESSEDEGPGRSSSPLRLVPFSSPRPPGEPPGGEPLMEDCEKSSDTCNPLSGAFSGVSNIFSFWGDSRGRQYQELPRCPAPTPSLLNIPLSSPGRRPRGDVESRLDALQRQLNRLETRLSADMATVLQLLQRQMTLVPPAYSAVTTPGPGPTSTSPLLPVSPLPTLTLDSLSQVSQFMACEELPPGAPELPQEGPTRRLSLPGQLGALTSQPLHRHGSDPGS

The compound `C[C@@H]1C[C@@]2(Cc3ccc(C#N)cc3[C@]23N=C(N)N(CC2CC(F)(F)C2)C3=O)C[C@H](C)[C@H]1O.O=C(O)C(F)(F)F` [Example 14] returned an IC50 in data set [1] of 4.5 nM. The “In vitro Human Hepatocytes % Qh @ 1 μM (assay 4)” value in the data set with Human Hepatocytes was 5.2 % Qh. Also, the IC50 at 48 h in data set [2] is 200 µM. This compound also returned an inhibition at 10 µM at hERG channel of 27%.
In data set [1], `C[C@@H]1C[C@@]2(Cc3ccc(C#N)cc3[C@]23N=C(N)N(CCc2ccncc2)C3=O)C[C@H](C)[C@H]1O.O=C(O)C(F)(F)F` [Example 15] displayed a concentration for half-maximal inhibition (IC50) of 9.7 nM. For the same compound, the “In vitro Human Hepatocytes % Qh @ 1 μM (assay 4)” value in the data set on Human Hepatocytes is reported as 22.9 % Qh. Moreover, the IC50 at 48 h in data set [2] was 800 µM. The compound also displayed an inhibition at 10 µM against hERG channel of 15.2%.
Taken in the same sequence, the figures for `Cc1cc(CN2C(=O)[C@]3(N=C2N)c2cc(C#N)ccc2C[C@@]32C[C@@H](C)[C@H](O)[C@@H](C)C2)ccn1.O=C(O)C(F)(F)F` [Example 16] were 9.4 nM, 19 % Qh, 200 µM and 1.4%.
With `COC1CCC2(CC1)Cc1ccc(C#N)cc1[C@]21N=C(N)N(C)C1=O` (some centres unmarked) [drawing 15, reference compound], the “In vitro Human Hepatocytes % Qh @ 1 μM (assay 4)” value in the data set on Human Hepatocytes is 14 % Qh. Moreover, the concentration for half-maximal inhibition (IC50) in data set [3] turned out to be 400 µM. Moreover, the “% Inhibition hERG @ 10 μM (assay 2)” value at hERG channel worked out at 90%.
Taken in the same sequence, the figures for `COC1CCC2(CC1)Cc1ccc(C#N)cc1[C@]21N=C(N)N(C)C1=O` (some centres unmarked) [drawing 18, reference compound] were 14 % Qh, 400 µM and 90%.
Take `COC1CCC2(CC1)Cc1ccc(C#CC3CC3)cc1C21N=C(N)N(Cc2cncnc2)C1=O` (centres unmarked) [reference compound]: the IC50 in data set [1] came to 1.1 nM. For the same compound, the “In vitro Human Hepatocytes % Qh @ 1 μM (assay 4)” value with Human Hepatocytes is recorded as 36 % Qh. Further, in data set [2], the IC50 at 48 h came out at 25 µM. The compound further displayed an inhibition at 10 µM on hERG channel of 60%.
For `COCCCOc1ccc2c(c1)C1(N=C(N)N(CC(F)F)C1=O)[C@]1(CC[C@H](OC)CC1)C2` (some centres unmarked) [reference compound], in that order: 7.3 nM, 43 % Qh, 50 µM and 36%.

The term IC50 denotes the point on the concentration scale where inhibition reaches its midpoint. A word on the inhibition: it is the percentage by which the read-out fell short of the control. Higher therefore signals a response far below the control.
